# From US10940139B2, “Compounds that interact with the Ras superfamily for the treatment of cancers, inflammatory diseases, rasopathies, and fibrotic disease” (Shy Therapeutics LLC, priority 2017, dated 2021)
# Biological target: KRas G12D/Q61H double mutant (Homo sapiens (Human), UniProt P01116, G12D/Q61H)
# Experiment: Ras GTP binding domain inhibition assay (labeled GTP)
# Conditions: 20 μM compound; read-out: % Inhibition at 20 μM KRas G12D Q61H
# In short: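 Inhibition of labeled GTP binding is measured on immobilized His-KRas protein in Tris buffer pH 7.5 with 1 mM MgCl2 and 1 mM DTT.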
# KRas G12D/Q61H double mutant, sequence (P01116-2 other isoform, or with tags, fused parts or gaps G12D/Q61H): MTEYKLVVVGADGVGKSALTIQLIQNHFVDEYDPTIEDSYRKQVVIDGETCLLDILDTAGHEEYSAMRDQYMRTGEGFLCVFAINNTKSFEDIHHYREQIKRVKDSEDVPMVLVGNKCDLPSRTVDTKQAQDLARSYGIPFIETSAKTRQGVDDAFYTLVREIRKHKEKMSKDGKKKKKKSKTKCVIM
row,inhibition at 20 µM [%],Compound
1,25 to 50,O=C(c1ccccc1)N1CCCc2c(O)nc(-c3ccccn3)nc21
2,25 to 50,Nc1nc(O)c2scc(C(=O)N3CCN(c4ccccc4)CC3)c2n1
3,25 to 50,Nc1nc(O)c2scc(C(=O)N3CCN(c4ccncc4)CC3)c2n1
4,1 to 25,CC1(N)CCN(C(=O)c2csc3c(O)nc(N)nc23)CC1
5,1 to 25,COCCOCCN(C)C(=O)c1csc2c(O)nc(N)nc12
6,25 to 50,N#Cc1ccc(C2(C(=O)Nc3ccnc(-c4ccccn4)n3)CCCC2)cc1
7,25 to 50,COc1ccc(N2CCN(C(=O)c3csc4c(O)nc(-c5ccccn5)nc34)CC2)cc1
8,25 to 50,O=C(c1csc2c(O)nc(-c3ccccn3)nc12)N1CCN(c2cccc(O)c2)CC1
9,25 to 50,O=C(c1csc2c(O)nc(-c3ccccn3)nc12)N1CCN(c2ccc(O)cc2)CC1
10,25 to 50,O=C(c1csc2c(O)nc(-c3ccccn3)nc12)N1CCN(c2ccc(Cl)cc2)CC1
11,25 to 50,COc1cc(F)ccc1N1CCN(C(=O)c2csc3c(O)nc(-c4ccccn4)nc23)CC1
12,25 to 50,COc1ccc(CN2CCN(C(=O)c3csc4c(O)nc(-c5ccccn5)nc34)CC2)cc1OC
13,25 to 50,CC1CN(Cc2ccccc2)CCN1C(=O)c1csc2c(O)nc(-c3ccccn3)nc12 (stereo not drawn)
14,51 to 75,O=C(c1csc2c(O)nc(-c3ccccn3)nc12)N1CCOC(c2cccc(O)c2)C1 (stereo not drawn)
15,25 to 50,O=C(c1csc2c(O)nc(-c3ccccn3)nc12)N1CCNC(c2ccccc2)C1 (stereo not drawn)
16,25 to 50,O=C(c1csc2c(O)nc(-c3ccccn3)nc12)N1CCNC(c2cccc(Cl)c2)C1 (stereo not drawn)
17,76 to 100,Cc1nccc(-c2nc3cc(F)ccc3c(=O)[nH]2)n1
18,51 to 75,O=C(Nc1nnc(-c2ccccn2)[nH]1)C1CCCN(c2ncccc2C(F)(F)F)C1 (stereo not drawn)
19,51 to 75,O=C(CCc1nc2ccccc2[nH]1)Nc1nnc(-c2ccccn2)[nH]1
20,51 to 75,Cc1nc(-c2ccccn2)[nH]c(=O)c1CC(=O)NC1CCCCCCC1
21,51 to 75,O=c1[nH]c(-c2cc(OCC(F)F)ccn2)nc2cc(F)ccc12

row,inhibition at 20 µM [%],Compound
1,25 to 50,C=CCCOC(C)C(=O)Nc1nnc(-c2ccccn2)[nH]1 (stereo not drawn)
2,25 to 50,COCC(O)CN1CCC(Nc2nc(-c3ccccn3)nc3c2CCC3)CC1 (stereo not drawn)
3,25 to 50,COc1ccccc1CC(=O)Nc1nnc(-c2ccccn2)[nH]1
4,25 to 50,Cc1cc(O)nc(-c2ccccn2)n1
5,25 to 50,c1ccc(-c2csc3nc(-c4ccccn4)nc(NCCN4CCOCC4)c23)cc1
6,25 to 50,COc1cc(CC(=O)Nc2nnc(-c3ccccn3)[nH]2)cc(OC)c1OC
7,25 to 50,O=C(Nc1nnc(-c2ccccn2)[nH]1)c1ccc(Cn2ccccc2=O)o1
8,25 to 50,OC[C@H]1C=C[C@@H](Nc2nc(-c3ccccn3)nc3c2CCC3)C1
9,25 to 50,O=C(Nc1nnc(-c2ccccn2)[nH]1)c1ccc(Cn2cncn2)cc1
10,25 to 50,CCCCN(C(=O)c1nn(-c2ccccc2)nc1C)c1ccccc1
11,25 to 50,Cc1nc(CC(=O)Nc2nnc(-c3ccccn3)[nH]2)cs1
12,25 to 50,O=c1[nH]c(-c2ccccn2)nc2ccccc12
13,25 to 50,O=C(Nc1nnc(-c2ccccn2)[nH]1)c1ccc(N2CCCCC2=O)cc1
14,25 to 50,O=C(CCN1C(=O)CSc2ccccc21)Nc1nnc(-c2ccccn2)[nH]1
15,25 to 50,CC(=O)N1CCC(C(=O)Nc2nnc(-c3ccccn3)[nH]2)CC1
16,25 to 50,O=C(Nc1nnc(-c2ccccn2)[nH]1)C1CCS(=O)(=O)C1 (stereo not drawn)
17,25 to 50,CC(C)N1CC(C(=O)Nc2nnc(-c3ccccn3)[nH]2)CC1=O (stereo not drawn)
18,25 to 50,O=C(Nc1nnc(-c2ccccn2)[nH]1)C1CC(c2ccccc2)C1 (stereo not drawn)
19,25 to 50,Cc1cnn(CCC(=O)Nc2nnc(-c3ccccn3)[nH]2)c1
20,25 to 50,CC(C)CCS(=O)(=O)CC(=O)Nc1nnc(-c2ccccn2)[nH]1
21,25 to 50,O=C(Nc1nnc(-c2ccccn2)[nH]1)C(F)(F)c1ccccc1

row,inhibition at 20 µM [%],Compound
1,25 to 50,O=C(CCc1ccccc1F)Nc1nnc(-c2ccccn2)[nH]1
2,25 to 50,O=C(Nc1nnc(-c2ccccn2)[nH]1)C1CC(=O)N(C2CCCC2)C1 (stereo not drawn)
3,25 to 50,Clc1ccccc1-c1nnc(CN2CCCc3ccccc32)o1
4,25 to 50,CC(c1nc(C(C)(C)C)no1)N(C)CC12CC3CC(CC(C3)C1)C2 (stereo not drawn)
5,25 to 50,O=C1COc2cc(C(=O)Nc3nc(-c4ccccn4)cs3)ccc2N1
6,25 to 50,COCCn1c(SCc2csc(-c3ccccc3)n2)nc2ccccc21
7,25 to 50,CCc1ccc(OCC(=O)Nc2nnc(-c3ccccn3)[nH]2)cc1
8,25 to 50,CCN(CCC(=O)OC)c1nc(-c2ccccn2)nc2c1CCC2
9,25 to 50,O=C(COCC1CC1)Nc1nnc(-c2ccccn2)[nH]1
10,25 to 50,Cc1c(C(=O)Nc2nc(-c3ccccn3)cs2)oc2ccccc12
11,25 to 50,CCCN(CC1CC1)S(=O)(=O)Oc1cccc(C(=O)NCc2ccccc2)c1
12,25 to 50,O=C(c1cc(-c2ccccc2)on1)N(Cc1ccco1)C1CCCC1
13,1 to 25,Cc1c(C(=O)N(c2ccccc2)C(C)C)cnn1-c1ccccn1
14,1 to 25,Cc1csc(C2CN(Cc3ccn(C)c(=O)c3)CCO2)n1 (stereo not drawn)
15,1 to 25,CC(c1nc(N)nc(N(C)C)n1)N1CCN(c2cccc(C(F)(F)F)c2)CC1 (stereo not drawn)
16,1 to 25,O=c1[nH]c(-c2ccnc(Oc3ccccc3Cl)c2)nc2ccsc12
17,1 to 25,CN(Cc1ccc(Br)cc1)Cc1ccc(C(=O)NCC(F)(F)F)cc1
18,1 to 25,O=C(Nc1nc(-c2ccccn2)cs1)c1cc(F)cc(F)c1
19,1 to 25,CS(=O)(=O)Nc1nc(-c2ccccn2)nc2scc(-c3ccccc3)c12
20,1 to 25,COC(=O)c1ccc(C(=O)N2Cc3ccccc3C(c3ccccc3)C2)nc1 (stereo not drawn)

# Same assay, conditions: 20 μM; read-out: KRas G12D Q61H % Inh.
row,inhibition at 20 µM [%],Compound
1,51 to 75,O=C(CCCc1nc2ccccc2s1)Nc1nnc(-c2ccccn2)[nH]1
2,25 to 50,CC(C)N(Cc1nnc(-c2ccc(Cl)cc2Cl)o1)c1ccc(F)cc1
3,51 to 75,N#Cc1ccc(OCC(=O)Nc2nnc(-c3ccccn3)[nH]2)cc1
4,51 to 75,O=C(Cc1ccccc1F)Nc1nnc(-c2ccccn2)[nH]1
5,51 to 75,CC(C(=O)Nc1nnc(-c2ccccn2)[nH]1)n1cnc2ccccc21 (stereo not drawn)
6,51 to 75,O=C(Nc1nnc(-c2ccccn2)[nH]1)C1CCCN(C(=O)c2cccs2)C1 (stereo not drawn)
7,51 to 75,CS(=O)(=O)c1cccc(C(=O)Nc2nnc(-c3ccccn3)[nH]2)c1
8,76 to 100,O=C(Nc1nnc(-c2ccccn2)[nH]1)c1csc(-c2ccoc2)n1
9,1 to 25,O=C(c1ccc2c(c1)CCO2)N1CCCc2c(O)nc(-c3ccccn3)nc21
10,51 to 75,O=C(CCc1cnn(-c2ccccc2)c1)Nc1nnc(-c2ccccn2)[nH]1 [drawing 2450]
11,51 to 75,CC(C)NC(=O)Nc1cccc(C(=O)Nc2nnc(-c3ccccn3)[nH]2)c1 [drawing 2451]
12,51 to 75,O=C(Cc1ccc(-n2cnnn2)cc1)Nc1nnc(-c2ccccn2)[nH]1 [drawing 2452]
13,51 to 75,COc1cccc(CCC(=O)Nc2nnc(-c3ccccn3)[nH]2)c1 [drawing 2453]
